Results as given in patent US20170071976A1, “PHARMACEUTICAL SOLUTION HAVING ANTI-TUMOR EFFECT-ENHANCING AND TOXICITY-REDUCING EFFECT, AND PHARMACEUTICAL COMPOSITION COMPRISING SAME” (priority 2014, published 2017).

Legend:
Experiment in all cases: MTT assay: in vitro inhibition of growth by deuterium oxide
Format in all cases: cell-based, human
[1] = test system: MCF-7 breast cancer cell line
Description: (§1) Studies of in vitro inhibition of growth of human tumor cells by deuterium oxide, by the MTT (3-(4,5-dimethylthiazol-2-yl)-2,5-diphenyltetrazolium bromide) assay
(§2) 1. A bottle of cells that had been cultured for 3 to 4 days and were in the exponential phase was taken, a suitable amount of 0.25% Trypsin-EDTA solution was added thereto to detach the cells from the wall, and the cells were suspended in 10 ml RPMI 1640 medium containing 10% FBS. 2. The cells were counted on a hemocytometer, and generally viable cells should be not less than 97%. 3. The cell suspension was diluted with a complete medium to prepare a suspension containing 1×10^4 cells/ml. 4. To each well of a 12-well culture plate, 300 μl cell suspension was added. The addition of cells should be finished within 4 hours. The plate was placed in an incubator at 37° C. and 5% CO2 for 24 hours. 5. Powdery RPMI Medium 1640 (Gibco, USA, Cat#: 31800-022) was dissolved in deuterium oxide (provided by Cambridge Isotope Laboratories, Inc. (US)) to prepare a cell culture medium (unless particularly specified, all culture media used in the Examples hereinafter were prepared from powdery RPMI Medium 1640 and deuterium oxide) at a concentration shown in Table 1, which was added into the cell culture plate. 6. The cell culture plate was incubated for 3 days in an incubator at 37° C., 5% CO2 and 100% humidity. 7. A solution of 1 mg/ml MTT was prepared in a serum-free RPMI1640 medium, added to the plate at 200 μl/well, and incubated at 37° C. for 4 hours, to allow MTT to be reduced to formazan. 8. The supernatant was removed by pipetting, 200 μl DMSO was added to dissolve formazan, and the solution was well mixed on a platform shaker. 9. Absorbance of each well was measured on an ELISA reader with a detection wavelength of 570 nm and a reference wavelength of 450 nm. 10. The assay was repeated one more time.
(§3) Calculation of results: Inhibition of growth of tumor cells by deuterium oxide was calculated using tumor cells treated with sodium chloride physiological solution as a control group. Inhibition of cell growth was plotted against amounts of deuterium oxide to obtain a dose response curve, from which the half maximal inhibitory concentration (IC50) of deuterium oxide was derived.
(§4) Inhibition of tumor cell growth (%)=(1−OD test/OD control)×100%

[2] = test system: Caov-3 ovarian cancer cell line; settings: expressed in v/v %
Description: as §1, §2, §3, §4

[3] = test system: SF767 brain cancer cell line
Description: as §1, §2, §3, §4

[4] = test system: PC-3 prostate cancer cell line
Description: as §1, §2, §3, §4

[5] = test system: K562 leukemia cell line
Description: as §1, §2, §3, §4

[6] = test system: SKOV3 ovarian cancer cell line
Description: as §1, §2, §3, §4

[7] = test system: CFPAC-1 pancreatic cancer cell line
Description: as §1, §2, §3, §4

[8] = test system: 5637 bladder cancer cell line
Description: as §1, §2, §3, §4

[9] = test system: BGC-823 gastric cancer cell line
Description: as §1, §2, §3, §4

Structure (SMILES): [2H]O[2H] [Deuterium oxide]
- Inhibition of growth (%) ([1]; deuterium oxide 1.2% (v/v)): 9.78%
- Inhibition of growth (%) ([1]; deuterium oxide 2.5% (v/v)): 11.04%
- Inhibition of growth (%) ([1]; deuterium oxide 5% (v/v)): 15.71%
- Inhibition of growth (%) ([1]; deuterium oxide 10% (v/v)): 22.47%
- Inhibition of growth (%) ([1]; deuterium oxide 20% (v/v)): 31.60%
- Inhibition of growth (%) ([1]; deuterium oxide 30% (v/v)): 40.38%
- Inhibition of growth (%) ([1]; deuterium oxide 40% (v/v)): 52.45%
- Inhibition of growth (%) ([1]; deuterium oxide 50% (v/v)): 63.22%
- Inhibition of growth (%) ([1]; deuterium oxide 60% (v/v)): 86.41%
- Inhibition of growth (%) ([1]; deuterium oxide 70% (v/v)): 89.06%
- Inhibition of growth (%) ([1]; deuterium oxide 80% (v/v)): 98.08%
- IC10 ([1]; expressed in v/v %): 3.28%
- IC50 ([1]; expressed in v/v %): 61.29%
- IC10 [2]: 11.51%
- IC50 [2]: 46.83%
- Inhibition of growth (%) ([3]; deuterium oxide 1.2% (v/v)): 4.76%
- Inhibition of growth (%) ([3]; deuterium oxide 2.5% (v/v)): 3.94%
- Inhibition of growth (%) ([3]; deuterium oxide 5% (v/v)): −4.41%
- Inhibition of growth (%) ([3]; deuterium oxide 10% (v/v)): −8.43%
- Inhibition of growth (%) ([3]; deuterium oxide 20% (v/v)): 7.66%
- Inhibition of growth (%) ([3]; deuterium oxide 30% (v/v)): 8.42%
- Inhibition of growth (%) ([3]; deuterium oxide 40% (v/v)): 16.50%
- Inhibition of growth (%) ([3]; deuterium oxide 50% (v/v)): 21.23%
- Inhibition of growth (%) ([3]; deuterium oxide 70% (v/v)): 49.65%
- Inhibition of growth (%) ([3]; deuterium oxide 80% (v/v)): 71.22%
- IC10 ([3]; expressed in v/v %): 31.85%
- IC50 ([3]; expressed in v/v %): 91.12%
- Inhibition of growth (%) ([4]; deuterium oxide 1.2% (v/v)): 0.46%
- Inhibition of growth (%) ([4]; deuterium oxide 2.5% (v/v)): 4.33%
- Inhibition of growth (%) ([4]; deuterium oxide 5% (v/v)): −2.50%
- Inhibition of growth (%) ([4]; deuterium oxide 10% (v/v)): 8.81%
- Inhibition of growth (%) ([4]; deuterium oxide 20% (v/v)): −16.46%
- Inhibition of growth (%) ([4]; deuterium oxide 30% (v/v)): 26.67%
- Inhibition of growth (%) ([4]; deuterium oxide 40% (v/v)): 43.19%
- Inhibition of growth (%) ([4]; deuterium oxide 50% (v/v)): 59.42%
- Inhibition of growth (%) ([4]; deuterium oxide 60% (v/v)): 60.84%
- Inhibition of growth (%) ([4]; deuterium oxide 70% (v/v)): 73.42%
- Inhibition of growth (%) ([4]; deuterium oxide 80% (v/v)): 87.08%
- IC10 ([4]; expressed in v/v %): 9.35%
- IC50 ([4]; expressed in v/v %): 61.34%
- Inhibition of growth (%) ([5]; deuterium oxide 1.2% (v/v)): −2.47%
- Inhibition of growth (%) ([5]; deuterium oxide 2.5% (v/v)): 6.51%
- Inhibition of growth (%) ([5]; deuterium oxide 5% (v/v)): 4.23%
- Inhibition of growth (%) ([5]; deuterium oxide 10% (v/v)): −7.60%
- Inhibition of growth (%) ([5]; deuterium oxide 20% (v/v)): 9.10%
- Inhibition of growth (%) ([5]; deuterium oxide 30% (v/v)): 22.72%
- Inhibition of growth (%) ([5]; deuterium oxide 40% (v/v)): 39.51%
- Inhibition of growth (%) ([5]; deuterium oxide 50% (v/v)): 55.51%
- Inhibition of growth (%) ([5]; deuterium oxide 60% (v/v)): 70.13%
- Inhibition of growth (%) ([5]; deuterium oxide 70% (v/v)): 88.59%
- Inhibition of growth (%) ([5]; deuterium oxide 80% (v/v)): 93.24%
- IC10 ([5]; expressed in v/v %): 14.83%
- IC50 ([5]; expressed in v/v %): 51.72%
- Inhibition of growth (%) ([6]; deuterium oxide 1.2% (v/v)): 1.82%
- Inhibition of growth (%) ([6]; deuterium oxide 2.5% (v/v)): 7.35%
- Inhibition of growth (%) ([6]; deuterium oxide 5% (v/v)): 8.33%
- Inhibition of growth (%) ([6]; deuterium oxide 10% (v/v)): 9.65%
- Inhibition of growth (%) ([6]; deuterium oxide 20% (v/v)): 12.64%
- Inhibition of growth (%) ([6]; deuterium oxide 30% (v/v)): 16.69%
- Inhibition of growth (%) ([6]; deuterium oxide 40% (v/v)): 32.76%
- Inhibition of growth (%) ([6]; deuterium oxide 50% (v/v)): 41.80%
- Inhibition of growth (%) ([6]; deuterium oxide 60% (v/v)): 59.84%
- Inhibition of growth (%) ([6]; deuterium oxide 70% (v/v)): 74.07%
- Inhibition of growth (%) ([6]; deuterium oxide 80% (v/v)): 90.42%
- Inhibition of growth (%) ([7]; deuterium oxide 1.2% (v/v)): 6.82%
- Inhibition of growth (%) ([7]; deuterium oxide 2.5% (v/v)): 14.05%
- Inhibition of growth (%) ([7]; deuterium oxide 5% (v/v)): 13.42%
- Inhibition of growth (%) ([7]; deuterium oxide 10% (v/v)): 10.75%
- Inhibition of growth (%) ([7]; deuterium oxide 20% (v/v)): 14.84%
- Inhibition of growth (%) ([7]; deuterium oxide 30% (v/v)): 26.16%
- Inhibition of growth (%) ([7]; deuterium oxide 40% (v/v)): 33.67%
- Inhibition of growth (%) ([7]; deuterium oxide 50% (v/v)): 45.30%
- Inhibition of growth (%) ([7]; deuterium oxide 60% (v/v)): 61.42%
- Inhibition of growth (%) ([7]; deuterium oxide 70% (v/v)): 77.94%
- Inhibition of growth (%) ([7]; deuterium oxide 80% (v/v)): 91.85%
- IC10 ([7]; expressed in v/v %): 3.20%
- IC50 ([7]; expressed in v/v %): 59.43%
- Inhibition of growth (%) ([8]; deuterium oxide 1.2% (v/v)): 0.84%
- Inhibition of growth (%) ([8]; deuterium oxide 2.5% (v/v)): −3.09%
- Inhibition of growth (%) ([8]; deuterium oxide 5% (v/v)): 10.44%
- Inhibition of growth (%) ([8]; deuterium oxide 10% (v/v)): 16.15%
- Inhibition of growth (%) ([8]; deuterium oxide 20% (v/v)): 25.56%
- Inhibition of growth (%) ([8]; deuterium oxide 30% (v/v)): 36.69%
- Inhibition of growth (%) ([8]; deuterium oxide 40% (v/v)): 44.32%
- Inhibition of growth (%) ([8]; deuterium oxide 50% (v/v)): 52.11%
- Inhibition of growth (%) ([8]; deuterium oxide 60% (v/v)): 59.76%
- Inhibition of growth (%) ([8]; deuterium oxide 70% (v/v)): 74.86%
- Inhibition of growth (%) ([8]; deuterium oxide 80% (v/v)): 88.43%
- IC10 ([8]; expressed in v/v %): 4.46%
- IC50 ([8]; expressed in v/v %): 59.08%
- Inhibition of growth (%) ([9]; deuterium oxide 1.2% (v/v)): 2.74%
- Inhibition of growth (%) ([9]; deuterium oxide 2.5% (v/v)): 2.15%
- Inhibition of growth (%) ([9]; deuterium oxide 5% (v/v)): −4.23%
- Inhibition of growth (%) ([9]; deuterium oxide 10% (v/v)): −3.60%
- Inhibition of growth (%) ([9]; deuterium oxide 20% (v/v)): 9.09%
- Inhibition of growth (%) ([9]; deuterium oxide 30% (v/v)): 12.32%
- Inhibition of growth (%) ([9]; deuterium oxide 40% (v/v)): 7.50%
- Inhibition of growth (%) ([9]; deuterium oxide 50% (v/v)): 15.99%
- Inhibition of growth (%) ([9]; deuterium oxide 60% (v/v)): 37.83%
- Inhibition of growth (%) ([9]; deuterium oxide 70% (v/v)): 61.90%
- Inhibition of growth (%) ([9]; deuterium oxide 80% (v/v)): 74.57%
- IC10 ([9]; expressed in v/v %): 26.92%
- IC50 ([9]; expressed in v/v %): 96.68%
